Laboratory results from patent US8030498B2, “Benzoylpyrazole compounds and herbicides containing them” (Ishihara Sangyo Kaisha, Ltd., priority 2005, dated 2011).

Assays:
crabgrass = assay: Test Example 2: soil application on the day after sowing, growth inhibition rate, crabgrass; assay type: in vivo, Digitaria sanguinalis L.; conditions: 250 g/ha active ingredient, observed on 19th to 24th day
Summary of the method: (§1)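 Upland soil pots sown with crop and weed seeds; next day wettable powder or emulsifiable concentrate at prescribed active-ingredient amounts, diluted to 500 L/ha water, sprayed onto soil. Growth inhibition scored visually 19–24 days later, 0 (as untreated) to 100% (complete kill).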

rice (Oryza sativa L.) = assay: Test Example 1: foliar treatment, growth inhibition rate, rice; assay type: in vivo; conditions: visually observed 17th to 23rd day after application
Summary of the method: (§2)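 Potted upland soil; compounds as wettable powders or emulsifiable concentrates diluted in water at 500 L/ha plus 0.1 vol % spreader, foliar-sprayed at defined leaf stages (rice 1.0–2.5, wheat 1.7–3.4, corn 2.0–3.5, greenfoxtail 1.0–3.0). Growth inhibition (0–100%) scored visually 17–23 days after application.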

redroot pigweed = assay: Test Example 2: soil application on the day after sowing, growth inhibition rate, redroot pigweed; assay type: in vivo, Amaranthus retroflexus L.; conditions: 250 g/ha active ingredient, observed on 19th to 24th day
Summary of the method: as §1

barnyardgrass = assay: Test Example 2: soil application on the day after sowing, growth inhibition rate, barnyardgrass; assay type: in vivo, Echinochloa crus-galli L.; conditions: 250 g/ha active ingredient, observed on 19th to 24th day
Summary of the method: as §1

[1] = system: velvetleaf (Abutilon theophrasti MEDIC.); assay: Test Example 1: foliar treatment, growth inhibition rate, velvetleaf; assay type: in vivo; conditions: visually observed 17th to 23rd day after application
Summary of the method: (§3)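 Visual scoring of growth inhibition, 0% (untreated) to 100% (complete kill), on days 17–23 following post-emergence spray of formulated compound in water (500 L/ha, 0.1 vol % spreader); plants treated at set leaf stages, e.g. corn 2.0–3.5, wheat 1.7–3.4.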

[2] = system: barnyardgrass (Echinochloa crus-galli L.); assay: Test Example 1: foliar treatment, growth inhibition rate, barnyardgrass; assay type: in vivo; conditions: visually observed 17th to 23rd day after application
Summary of the method: as §3

[3] = system: prickly sida (Sida spinosa L.); assay: Test Example 1: foliar treatment, growth inhibition rate, prickly sida; assay type: in vivo; conditions: visually observed 17th to 23rd day after application
Summary of the method: as §3

greenfoxtail = assay: Test Example 2: soil application on the day after sowing, growth inhibition rate, greenfoxtail; assay type: in vivo, Setaria viridis L.; conditions: 250 g/ha active ingredient, observed on 19th to 24th day
Summary of the method: as §1

corn (Zea mays L.) = assay: Test Example 1: foliar treatment, growth inhibition rate, corn; assay type: in vivo; conditions: visually observed 17th to 23rd day after application
Summary of the method: as §2

[4] = system: greenfoxtail (Setaria viridis L.); assay: Test Example 1: foliar treatment, growth inhibition rate, greenfoxtail; assay type: in vivo; conditions: visually observed 17th to 23rd day after application
Summary of the method: as §2

prickly sida = assay: Test Example 2: soil application on the day after sowing, growth inhibition rate, prickly sida; assay type: in vivo, Sida spinosa L.; conditions: 250 g/ha active ingredient, observed on 19th to 24th day
Summary of the method: as §1

[5] = system: crabgrass (Digitaria sanguinalis L.); assay: Test Example 1: foliar treatment, growth inhibition rate, crabgrass; assay type: in vivo; conditions: visually observed 17th to 23rd day after application
Summary of the method: as §3

[6] = system: redroot pigweed (Amaranthus retroflexus L.); assay: Test Example 1: foliar treatment, growth inhibition rate, redroot pigweed; assay type: in vivo; conditions: visually observed 17th to 23rd day after application
Summary of the method: as §3

[7] = system: soybean (Glycine max Merr.); assay: Test Example 1: foliar treatment, growth inhibition rate, soybean; assay type: in vivo; conditions: visually observed 17th to 23rd day after application
Summary of the method: as §3

wheat = assay: Test Example 2: soil application on the day after sowing, growth inhibition rate, wheat; assay type: in vivo, Triticum spp.; conditions: 250 g/ha active ingredient, observed on 19th to 24th day
Summary of the method: as §1

wheat (Triticum spp.) = assay: Test Example 1: foliar treatment, growth inhibition rate, wheat; assay type: in vivo; conditions: visually observed 17th to 23rd day after application
Summary of the method: as §2

velvetleaf = assay: Test Example 2: soil application on the day after sowing, growth inhibition rate, velvetleaf; assay type: in vivo, Abutilon theophrasti MEDIC.; conditions: 250 g/ha active ingredient, observed on 19th to 24th day
Summary of the method: as §1

corn = assay: Test Example 2: soil application on the day after sowing, growth inhibition rate, corn; assay type: in vivo, Zea mays L.; conditions: 250 g/ha active ingredient, observed on 19th to 24th day
Summary of the method: as §1

rice = assay: Test Example 2: soil application on the day after sowing, growth inhibition rate, rice; assay type: in vivo, Oryza sativa L.; conditions: 250 g/ha active ingredient, observed on 19th to 24th day
Summary of the method: as §1

soybean = assay: Test Example 2: soil application on the day after sowing, growth inhibition rate, soybean; assay type: in vivo, Glycine max Merr.; conditions: 250 g/ha active ingredient, observed on 19th to 24th day
Summary of the method: as §1

SMILES | Growth inhibition rate (%) Crabgrass (crabgrass) | Growth inhibition rate (%) redroot pigweed (redroot pigweed) | Growth inhibition rate (%) Barnyardgrass (barnyardgrass) | Growth inhibition rate (%) Greenfoxtail (greenfoxtail) | Growth inhibition rate (%) Prickly sida (prickly sida) | Growth inhibition rate (%) Wheat (wheat) | Growth inhibition rate (%) Velvetleaf (velvetleaf) | Growth inhibition rate (%) Corn (corn) | Growth inhibition rate (%) Rice (rice) | Growth inhibition rate (%) Soybean (soybean) | Growth inhibition rate (%) Rice (rice (Oryza sativa L.); 31 g/ha active ingredient) | Growth inhibition rate (%) Velvetleaf ([1]; 31 g/ha active ingredient) | Growth inhibition rate (%) Barnyardgrass ([2]; 31 g/ha active ingredient) | Growth inhibition rate (%) Prickly sida ([3]; 31 g/ha active ingredient) | Growth inhibition rate (%) Corn (corn (Zea mays L.); 31 g/ha active ingredient) | Growth inhibition rate (%) Greenfoxtail ([4]; 31 g/ha active ingredient) | Growth inhibition rate (%) Crabgrass ([5]; 31 g/ha active ingredient) | Growth inhibition rate (%) redroot pigweed ([6]; 31 g/ha active ingredient) | Growth inhibition rate (%) Soybean ([7]; 31 g/ha active ingredient) | Growth inhibition rate (%) Wheat (wheat (Triticum spp.); 31 g/ha active ingredient) | further results
CCC(C)SC(=O)Oc1c(C(=O)c2ccc(S(C)(=O)=O)c(C(=O)OC)c2Cl)cnn1CC (stereo not drawn) [compound 220] | 95% | 100% | 95% | 100% | 95% | 0% | 95% | 0% | 100% | 0% |  |  |  |  |  |  |  |  |  |  | Growth inhibition rate (%) Rice (rice (Oryza sativa L.); 63 g/ha active ingredient): 80%; Growth inhibition rate (%) Velvetleaf ([1]; 63 g/ha active ingredient): 90%; Growth inhibition rate (%) Barnyardgrass ([2]; 63 g/ha active ingredient): 100%; Growth inhibition rate (%) Prickly sida ([3]; 63 g/ha active ingredient): 90%; Growth inhibition rate (%) Corn (corn (Zea mays L.); 63 g/ha active ingredient): 0%; Growth inhibition rate (%) Greenfoxtail ([4]; 63 g/ha active ingredient): 70%; Growth inhibition rate (%) Crabgrass ([5]; 63 g/ha active ingredient): 60%; Growth inhibition rate (%) redroot pigweed ([6]; 63 g/ha active ingredient): 100%; Growth inhibition rate (%) Soybean ([7]; 63 g/ha active ingredient): 100%; Growth inhibition rate (%) Wheat (wheat (Triticum spp.); 63 g/ha active ingredient): 0%
CCn1ncc(C(=O)c2ccc(S(C)(=O)=O)c(C(=O)OC)c2C)c1OC(=O)SC(C)C [compound 87] | 90% | 95% | 80% | 70% | 70% | 0% | 50% | 0% | 80% | 0% | 90% | 95% | 95% | 75% | 10% | 100% | 100% | 100% | 95% | 10% | 
CCSC(=O)Oc1c(C(=O)c2ccc(S(C)(=O)=O)c(OC(F)F)c2C)cnn1C [Compound No. 38, 5-(ethylthio)carbonyloxy-1-methylpyrazol-4-yl 3-(difluoromethoxy)-2-methyl-4-(methylsulfonyl)phenyl ketone] |  |  |  |  |  |  |  |  |  |  |  |  |  | 40% |  |  |  | 20% | 70% |  | inhibition at 250 g/ha (crabgrass; Digitaria sanguinalis): 95%; pest or weed control at 31 g/ha (rice (Oryza sativa L.); Oryza sativa, 31 g/ha active ingredient): 40%; inhibition at 250 g/ha (redroot pigweed; Amaranthus retroflexus): 90%; inhibition at 250 g/ha (barnyardgrass; Echinochloa crus-galli): 90%; pest or weed control at 31 g/ha ([1]; Abutilon theophrasti, 31 g/ha active ingredient): 60%; pest or weed control at 31 g/ha ([2]; Echinochloa crus-galli, 31 g/ha active ingredient): 80%; inhibition at 250 g/ha (greenfoxtail; Setaria viridis): 70%; pest or weed control at 31 g/ha (corn (Zea mays L.); Zea mays, 31 g/ha active ingredient): 0%; pest or weed control at 31 g/ha ([4]; Setaria viridis, 31 g/ha active ingredient): 30%; inhibition at 250 g/ha (prickly sida; Sida spinosa): 70%; pest or weed control at 31 g/ha ([5]; Digitaria sanguinalis, 31 g/ha active ingredient): 0%; inhibition at 250 g/ha (wheat; Triticum aestivum): 0%; pest or weed control at 31 g/ha (wheat (Triticum spp.); Triticum, 31 g/ha active ingredient): 0%; inhibition at 250 g/ha (velvetleaf; Abutilon theophrasti): 20%; inhibition at 250 g/ha (corn; Zea mays): 0%; inhibition at 250 g/ha (rice; Oryza sativa): 60%; inhibition at 250 g/ha (soybean; Glycine max): 0%
COC(=O)c1c(S(C)(=O)=O)ccc(C(=O)c2cnn(C)c2OC(=O)SC(C)(C)C)c1C [compound 90] | 100% | 100% | 100% | 100% | 98% | 0% | 100% | 10% | 100% | 30% | 40% | 95% | 80% | 75% | 0% | 95% | 60% | 80% | 80% | 0% | 
CCn1ncc(C(=O)c2ccc(S(C)(=O)=O)c(C(=O)OC)c2C)c1OC(=O)SC(C)(C)C [compound 91] | 95% | 100% | 90% | 60% | 95% | 0% | 70% | 0% | 80% | 30% | 90% | 95% | 95% | 75% | 20% | 98% | 98% | 98% | 98% | 0% | 
CCCSC(=O)Oc1c(C(=O)c2ccc(S(C)(=O)=O)c(C(=O)OC)c2C)cnn1C [compound 84] | 100% | 100% | 98% | 100% | 98% | 0% | 98% | 30% | 98% | 50% | 95% | 95% | 98% | 100% | 10% | 100% | 98% | 100% | 95% | 50% | 
